Measurements published in patent US4229443A, “Derivatives of penicillanic acid” (Leo Pharmaceutical Products, Ltd. A/S, priority 1976, dated 1980).
Converted amounts (≈) assume the structure as drawn. Structures can show the parent of a compound that is named as a salt.

Experiments:
Type in all cases: cell-based
[1] = tested on: Pseudomonas aeruginosa BA 2 Leo strain; assay: Antibacterial activity, 50% inhibition of growth, Pseudomonas aeruginosa BA 2 Leo strain; conditions: BA2LEOSTRAIN, read-out: IC50 (concentration required for a 50% inhibition of growth)
Source text: (§1) In the table below the antibacterial activity of the compound of Example 1, the 6-[4'-(3"-aminopropyl)-1'-piperidyl-methyleneamino]penicillanic acid hydrochloride, in the table called EB 686, is compared to that of the known compounds Ampicillin and Mecillinam (a compound of the above mentioned British Pat. No. 1,293,590).
(§2) *IC50 means the concentration required for a 50% inhibition of […]

[2] = tested on: Klebsiella pneumoniae AT CC 10273; assay: Antibacterial activity, 50% inhibition of growth, Klebsiella pneumoniae AT CC 10273; conditions: ATCC10273, read-out: IC50 (concentration required for a 50% inhibition of growth)
Source text: as §1, §2

E.coli W3110 (RTEM) = assay: Antibacterial activity, 50% inhibition of growth, E.coli W3110 (RTEM); conditions: Escherichia coli, read-out: IC50 (concentration required for a 50% inhibition of growth)
Source text: as §1, §2

[3] = tested on: Pseudomonas aeruginosa PS 18s; assay: Antibacterial activity, 50% inhibition of growth, Pseudomonas aeruginosa PS 18s; conditions: PS18S, read-out: IC50 (concentration required for a 50% inhibition of growth)
Source text: as §1, §2

[4] = tested on: Salmonella cholerasuis NCTC 5735; assay: Antibacterial activity, 50% inhibition of growth, Salmonella cholerasuis NCTC 5735; conditions: NCTC5735, read-out: IC50 (concentration required for a 50% inhibition of growth)
Source text: as §1, §2

E.coli HA 2 Leo strain = assay: Antibacterial activity, 50% inhibition of growth, E.coli HA 2 Leo strain; conditions: Escherichia coli, HA2LEOSTRAIN, read-out: IC50 (concentration required for a 50% inhibition of growth)
Source text: as §1, §2

[5] = tested on: Enterobacter cloacae P 99; assay: Antibacterial activity, 50% inhibition of growth, Enterobacter cloacae P 99; conditions: P99, read-out: IC50 (concentration required for a 50% inhibition of growth)
Source text: as §1, §2

[6] = tested on: Salmonella typhimurium NCTC 5710; assay: Antibacterial activity, 50% inhibition of growth, Salmonella typhimurium NCTC 5710; conditions: Salmonella enterica, read-out: IC50 (concentration required for a 50% inhibition of growth)
Source text: as §1, §2

Structure (SMILES)	IC50 [1] [µg/mL]	IC50 [2] [µg/mL]	IC50 (E.coli W3110 (RTEM)) [µg/mL]	IC50 [3] [µg/mL]	IC50 [4] [µg/mL]	IC50 (E.coli HA 2 Leo strain) [µg/mL]	IC50 [5] [µg/mL]	IC50 [6] [µg/mL]
CC1(C)S[C@@H]2[C@H](NC(=O)[C@H](N)c3ccccc3)C(=O)N2[C@H]1C(=O)O [Ampicillin]	> 100	79 (≈ 226 µM)	> 100	50 (≈ 143 µM)	0.25 (≈ 0.715 µM)	1.3 (≈ 3.72 µM)	> 100	0.4 (≈ 1.14 µM)
CC1(C)S[C@@H]2[C@H](N=CN3CCC(CN=[N+]=[N-])CC3)C(=O)N2[C@H]1C(=O)O [Example 2D, 6-[4'-azidomethyl-1'-piperidyl-methyleneamino]-penicillanic acid]	–	–	–	–	–	0.05 (≈ 0.136 µM)	–	0.2 (≈ 0.546 µM)
CC1(C)S[C@@H]2[C@H](/N=C/N3CCCCCC3)C(=O)N2[C@H]1C(=O)O [Mecillinam]	> 100	~1 (≈ 3.07 µM)	2 (≈ 6.15 µM)	> 100	0.05 (≈ 0.154 µM)	0.016 (≈ 0.0492 µM)	0.1 (≈ 0.307 µM)	0.05 (≈ 0.154 µM)
CC1(C)S[C@@H]2[C@H](N=CN3CCC(CCCN)CC3)C(=O)N2[C@H]1C(=O)O [EB 686, 6-[4'-(3"-aminopropyl)-1'-piperidyl-methyleneamino]-penicillanic acid monohydrochloride]	16	0.04	0.5	5	0.0063	0.016	0.02	0.016
CC(C)(C)C(=O)OCOC(=O)[C@@H]1N2C(=O)[C@@H](N=CN3CCCC(C(CN)CN)CC3)[C@H]2SC1(C)C (stereo partly shown) [Example 28F, Pivaloyloxymethyl 6-[(4'-(1",3"-diaminopropyl-2")-hexahydro-1'H-azepin-1'-yl)-methyleneamino]-penicillanate, trihydrochloride]	20	–	–	–	–	0.05	–	0.05
CC1(C)S[C@@H]2[C@H](N=CN3CCC(CCCN=[N+]=[N-])CC3)C(=O)N2[C@H]1C(=O)O [Example 1D, 6-[4'-(3"-azidopropyl)-1'-piperidyl-methyleneamino]-penicillanic acid]	–	–	–	–	–	0.04 (≈ 0.101 µM)	–	0.5 (≈ 1.27 µM)
